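A five-concentration, 48-hour dose response in 96-well plates underlies each endpoint, interpolated linearly between surrounding concentrations. GI50 marks 50% less growth. The concentration for full growth arrest is given as TGI.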
Tests used:
Experiment in all cases: inhibition of tumour cell growth, NCI panel, 48 h
[1] = test system: HCC-2998 colon
[2] = test system: OVCAR-5 ovarian
[3] = test system: HCT-15 colon
[4] = test system: UACC-257 melanoma
[5] = test system: M14 melanoma
[6] = test system: HOP-92 NSCLC
[7] = test system: HT29 colon
[8] = test system: SF-295 CNS
[9] = test system: LOX IMVI melanoma
[10] = test system: IGROV1 ovarian

| SMILES | GI50 [1] [µM] | TGI [1] [µM] | GI50 [2] [µM] | TGI [2] [µM] | GI50 [3] [µM] | TGI [3] [µM] | GI50 [4] [µM] | TGI [4] [µM] | GI50 [5] [µM] | TGI [5] [µM] | GI50 [6] [µM] | TGI [6] [µM] | GI50 [7] [µM] | TGI [7] [µM] | GI50 [8] [µM] | TGI [8] [µM] | TGI [9] [µM] | TGI [10] [µM] | GI50 [10] [µM] |
| --- | --- | --- | --- | --- | --- | --- | --- | --- | --- | --- | --- | --- | --- | --- | --- | --- | --- | --- | --- |
| COc1cnc2c(c1)C(=O)c1c-2n(CCCN2CCNCC2)c(=O)c2cc([N+](=O)[O-])ccc12 | 1.11 | 2.36 | 1.02 | 2.58 | 0.194 | 1.54 | 3.49 | 24.1 | 0.279 | 1.49 | 1.25 | 9.91 | 0.21 | 1.53 | 0.126 | 1.07 | – | – | – |
| O=C(O)Cc1cccc2c(=O)c3cccc([N+](=O)[O-])c3oc12 | – | > 100 | – | > 100 | – | > 100 | – | > 100 | – | > 100 | – | – | – | > 100 | – | > 100 | > 100 | > 100 | – |
| Cc1ccccc1C1CC(c2ccccc2)=NO1 (stereo not given) | – | > 100 | – | > 100 | – | > 100 | – | > 100 | – | > 100 | – | > 100 | – | > 100 | – | > 100 | – | > 100 | – |
| C=C(CCCO)[C@@H]1CC[C@@](C)(O)[C@H]1C | – | > 100 | – | > 100 | – | > 100 | – | > 100 | – | – | – | – | – | > 100 | – | > 100 | – | > 100 | – |
| O=[N+]([O-])c1cc2c([N+](=O)[O-])cccc2o1 | – | 35.7 | – | – | – | 23 | – | 21.8 | – | 24.9 | – | 36 | – | 66.6 | – | 42.4 | > 100 | – | – |
| C=CCN(N=O)C(=O)NCCCCC(NC(C)=O)C(=O)NCc1ccccc1 (stereo not given) | – | – | – | > 100 | – | > 100 | – | > 100 | – | > 100 | – | > 100 | – | > 100 | – | > 100 | > 100 | > 100 | – |
| COc1ccc(CCc2cc(OC)c(O)c(OC)c2)cc1 | – | > 100 | – | > 100 | – | – | – | 91.6 | – | > 100 | – | > 100 | – | > 100 | – | – | – | > 100 | – |
| O=c1c(Cl)cc2nc3ccccc3sc-2c1Cl | – | 34.7 | – | 78.9 | – | 32.3 | – | 8.2 | – | 37.2 | – | – | – | 49.2 | – | 34.4 | 43 | 28.1 | – |
| c1ccc2c(NCCCCCCNc3cccc4ccccc34)cccc2c1 | – | > 100 | – | > 100 | – | > 100 | – | > 100 | – | > 100 | – | > 100 | – | > 100 | – | > 100 | – | > 100 | – |
| COc1cc(/C=C2\C[C@H]3[C@@H]4CC=C5C[C@@H](OC(C)=O)CC[C@]5(C)[C@H]4CC[C@]3(C)[C@H]2OC(C)=O)ccc1OCCN1CCCC1 | 8.01 | 15.4 | 10 | 20.1 | – | – | 10.8 | 20.1 | 8.56 | 30.4 | 5.45 | 13.4 | 11.7 | > 50 | 12.6 | 25.4 | – | > 50 | 19.3 |
| CC(=O)O[C@H]1CC2C=CC3C(CCC31)O2 (stereo not given in full) | – | > 100 | – | – | – | > 100 | – | – | – | > 100 | – | – | – | > 100 | – | – | > 100 | > 100 | – |
